Data: US6083932A, “Pharmaceutical compositions derived from ginseng and methods of treatment using same” (CV Technologies Inc., priority 1998, dated 2000)

Legend:
[1] = system: choline uptake into synaptosomes, whole brain; test: choline uptake into synaptosomes from rat whole brain; format: biochemical; conditions: various doses; n=10
Text: We also studied the effects of HT1001 on choline uptake in synaptosomes.
We have examined choline uptake in synaptosome preparations from whole brain and hippocampus in the presence of Rb1, HT1001 and HC3.
The magnitude of these effects are consistent with the previous studies.

[2] = system: choline uptake into synaptosomes, whole brain; conditions: Benishin 1992 / previously demonstrated; cited from earlier work
[3] = system: choline uptake in rat brain synaptomes; test: choline uptake in rat brain synaptosomes (Example 2); format: biochemical; conditions: mean ± SE, n = 4
Text: Example 2 is a comparison of several batches of Rb1 extract, an extract of total ginsenosides (TS) containing 25% Rb1, 19.4% Rc1 and 21.6% Rg1+Re, and HT1001 on choline uptake in rat brain synaptomes. The Rb1 tested had greater than 98% purity. Rb1-52, Rb1-53 and Rb1-54 represent three different batches of Rb1.

monoamine oxidase-B = biological target: T1, monoamine oxidase-B (Rattus norvegicus, UniProt P19643); test: in vitro monoamine oxidase-B inhibiting activity (radiochemical, β-phenylethylamine substrate); format: biochemical; conditions: read-out: inhibition of monoamine oxidase B activity
T1 construct: homogenates of rat brain; from tissue; host or cells: rat brain homogenate
T1 sequence (P19643 1-520): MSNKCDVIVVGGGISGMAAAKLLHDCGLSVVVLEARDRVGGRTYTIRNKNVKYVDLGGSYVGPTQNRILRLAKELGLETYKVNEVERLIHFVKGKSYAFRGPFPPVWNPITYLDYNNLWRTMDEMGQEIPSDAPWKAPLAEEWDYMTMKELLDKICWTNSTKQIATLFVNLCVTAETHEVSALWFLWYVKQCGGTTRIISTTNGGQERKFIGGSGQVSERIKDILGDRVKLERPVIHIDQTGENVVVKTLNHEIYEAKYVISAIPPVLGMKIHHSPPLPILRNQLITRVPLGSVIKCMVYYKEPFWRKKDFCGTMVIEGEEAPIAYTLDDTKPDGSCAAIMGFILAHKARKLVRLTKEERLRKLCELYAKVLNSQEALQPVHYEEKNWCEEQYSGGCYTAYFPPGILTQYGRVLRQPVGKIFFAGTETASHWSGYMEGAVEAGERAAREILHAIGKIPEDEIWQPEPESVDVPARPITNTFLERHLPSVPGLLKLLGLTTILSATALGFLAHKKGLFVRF
Description: (§1) Example 1 is a study of the effects of several extracts of HT1001, PQ4, PQ5, PQ6 and pure ginsenosides, on monoamine oxidase A (MAO A) and monoamine oxidase B (MAO B) activity in vitro.
(§2) HT-1001, related extracts and pure ginsenosides were evaluated for in vitro monoamine oxidase-A and monoamine oxidase-B inhibiting activity using the radiochemical procedure of Lyles and Callingham, Biochem. Pharmacol. 31: 1417-1424 (1982), employing either radiolabelled 5-hydroxytryptamine or β-phenylethylamine as substrates for monoamine oxidase-A (MAO-A) or monoamine oxidase-B (MAO-B) respectively. Various concentrations of the compounds of interest were incubated in appropriately diluted homogenates of rat brain in a 0.2 M potassium phosphate buffer. After a 15 minute preincubation period the reaction was initiated by the addition of substrate. Incubations proceded at 37° C. for 10 minutes. Incubation was terminated by the addition of acid and the radiolabelled products (5-hydroxyindoleacetic acid, 5-hydroxyindoleacetaldehyde or phenylacetic acid, phenylacetaldehyde) were extracted and quantified by liquid scintillation counting procedures. Incubations were done in triplicate and incubations including pheneizine a known MAO inhibitor were included as controls and for comparison. The percent inhibition of monoamine oxidase-A or monoamine oxidase-B activity compared to controls containing no experimental material was calculated.

monoamine oxidase-A = biological target: T2, monoamine oxidase-A (Rattus norvegicus, UniProt P21396); test: in vitro monoamine oxidase-A inhibiting activity (radiochemical, 5-hydroxytryptamine substrate); format: biochemical; conditions: read-out: inhibition of monoamine oxidase A activity
T2 construct: homogenates of rat brain; from tissue; host or cells: rat brain homogenate
T2 sequence (P21396 1-526): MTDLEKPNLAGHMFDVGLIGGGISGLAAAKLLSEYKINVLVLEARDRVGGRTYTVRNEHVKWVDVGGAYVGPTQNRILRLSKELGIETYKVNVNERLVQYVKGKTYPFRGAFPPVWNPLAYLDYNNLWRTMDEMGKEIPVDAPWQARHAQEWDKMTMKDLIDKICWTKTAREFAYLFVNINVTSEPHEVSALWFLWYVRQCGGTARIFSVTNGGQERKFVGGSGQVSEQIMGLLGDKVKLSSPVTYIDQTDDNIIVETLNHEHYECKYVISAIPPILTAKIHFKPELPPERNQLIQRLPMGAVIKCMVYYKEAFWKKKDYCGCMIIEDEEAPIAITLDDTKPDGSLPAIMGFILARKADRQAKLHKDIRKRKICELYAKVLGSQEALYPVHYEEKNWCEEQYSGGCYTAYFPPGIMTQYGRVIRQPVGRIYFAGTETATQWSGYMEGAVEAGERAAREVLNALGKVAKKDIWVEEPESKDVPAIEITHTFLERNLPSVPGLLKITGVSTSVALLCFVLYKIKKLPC
Description: as §1, §2

rats = test: Morris water maze, learning and memory, scopolamine induced amnesia; format: in vivo, rat; conditions: for mean latency: scopolamine 2 mg/kg, all scopolamine treated animals; for memory effect of scopolamine treatment: 2 mg/kg
Text: First, we studied the effects of HT1001 on Learning and Memory. […] As HT1001 is a mixture of ginsenosides, it may not have the same properties as pure Rb1. […] Rats are required to learn the location of a hidden platform in a swimming pool. […] The effects of HT1001 on memory can also be examined in scopolamine induced amnesia. If HT1001 enhances memory it should protect against memory loss in scopolamine treated animals.
The Morris water maze task was based on methods previously described (Pitsikas et al, Pharmacol. Biochem. Behav. 47: 95-99 (1994); Smith et al, Psychopharmacol. 114: 651-656 (1994)). The apparatatus consisted of a circular pool (1.7 m diameter, 35 cm deep) which contained water (30° C.) made cloudy by the presence of powdered milk. A moveable platform (10 cm×11.5 cm and 20 cm tall) was placed in the pool such that it was submerged by 3 cm and could not be seen. Each trial involved placing the rat in the pool in one of the four equally spaced quadrants in which the pool was divided. Visual cues consisting of large posters were placed on the walls of the room in which the experiment was conducted, and the experimenters maintained established positions throughout each experiment. During the learning period, animals were allowed to swim freely until they found the escape platform. […] During the initial learning period, all rats were tested sequentially and were given 4 trials per day during which the escape platform was located in a fixed position in the center of the pool. During the scopolamine trials rats were tested sequentially three times on cach day with the three trials being performed between 30 and 45 minutes following scopolamine or saline injection, The latency to reach the platform was recorded.
Experimental Design for Learning and Memory Testing
The specific aim of the experiment was to test if HT1001 affected the acquisition, retention and/or recall of a new task in the presence of scopolamine-induced amnesia. Rats were initially divided into two groups and fed either water (0.5 ml) or HT1001 (200 mg/kg/day in 0.5 ml water by gavage) for the duration of the experiment. Eight days after the initiation of water or HT1001 administration, rats were given the task of learning the position of a platform concealed at the center of the Morris water maze. The rats were placed in the pool 4 times per day for 5 days and the time required to find the platform was recorded (maximum duration 300 seconds). Latency became shorter as the rats learned the task. On day 14, the two groups of rats were further subdivided into four groups. […] In each instance the time to locate the platform (latency) was recorded. […]

PC12 cells = test: neurite outgrowth in PC12 cells; format: cell-based; conditions: seven days after treatment
Description: A study of the neurotrophic effects of HT1001 and some pure ginsenosides was conducted. A new mechanism of action for HT1001 was shown, which is the stimulation of neurite outgrowth in a PC12 cell line. […] The beneficial effects (prevention/treatment) of HT-1001 may apply to degenerative diseases such as senile dementia, Parkinson's disease, Alzheimer's disease, multi-infarct dementia, etc. Alzheimer's disease (AD) is associated with degeneration of cholinergic nerve tracts including projections from the basal forebrain to the cortex and hippocampus. The PC12 (pheochromocytoma) cell line is one of the models for the study of the development of these nerve tracts. The cell line is phenotypically a chromaffin cell line, but can be induced to express adrenergic and cholinergic markers as well. This model has the advantages that (1) it is an immortalized cell line, (2) it is sensitive to, but not dependent upon, NGF for survival, and (3) it shares many properties in common with the central cholinergic neurons of the basal forebrain. It has been noted that PC12 cells are not sensitive to all of the trophic factors that central cholinergic neurons respond to, whereas central cholinergic neurons respond to all trophic factors that PC12 cells respond to. […] The cellular responses to Nerve Growth Factor (NGF) and samples were determined by counting the number of cells containing processes in PC12 cells. […] The cells and neurites were counted as follows: The cells with circular or global shape and no neurite outgrowth were scored as 0 (S0). […] Cells with more than two small neurites on the cell bodies were scored as S2. Cells with one or two neurites with a length of at least two times diameter as their body were scored as S3. Cells with more than two long neurites were scored as S4. The neurite index was calculated as below: Neurite index (In)=total neurite Score (ΣS)/total cell number (.[…] is the cell number of every cell field. The test samples included: […]

Compound | choline uptake ([3]; 0.0011 mg/l) | choline uptake ([3]; 0.011 mg/l) | choline uptake ([3]; 0.11 mg/l) | choline uptake ([3]; 1.1 mg/l) | choline uptake ([3]; 11 mg/l) | further results
C[N+]1(C)CCOC(O)(c2ccc(-c3ccc(C4(O)C[N+](C)(C)CCO4)cc3)cc2)C1 (stereo not drawn) [HC3] |  |  |  |  |  | choline uptake by rat brain synaptosomes (FIG. 28, in words) [1]: inhibits choline uptake; choline uptake (literature) [2]: inhibit choline uptake
CC(C)=CCC[C@](C)(O[C@@H]1O[C@H](CO[C@@H]2O[C@H](CO)[C@@H](O)[C@H](O)[C@H]2O)[C@@H](O)[C@H](O)[C@H]1O)[C@H]1CC[C@]2(C)[C@@H]1[C@H](O)C[C@@H]1[C@@]3(C)CC[C@H](O[C@@H]4O[C@H](CO)[C@@H](O)[C@H](O)[C@H]4O[C@@H]4O[C@H](CO)[C@@H](O)[C@H](O)[C@H]4O)C(C)(C)[C@@H]3CC[C@]12C [Rb1-52, ginsenoside Rb1] | 108 ± 5.7 % of control | 108 ± 4.4 % of control | 108 ± 5.8 % of control | 109 ± 5.4 % of control | 111 ± 3.7 % of control | 
CC(C)=CCC[C@](C)(O[C@@H]1O[C@H](CO[C@@H]2O[C@H](CO)[C@@H](O)[C@H](O)[C@H]2O)[C@@H](O)[C@H](O)[C@H]1O)[C@H]1CC[C@]2(C)[C@@H]1[C@H](O)C[C@@H]1[C@@]3(C)CC[C@H](O[C@@H]4O[C@H](CO)[C@@H](O)[C@H](O)[C@H]4O[C@@H]4O[C@H](CO)[C@@H](O)[C@H](O)[C@H]4O)C(C)(C)[C@@H]3CC[C@]12C [Rb1-53, ginsenoside Rb1] | 106 ± 1.3 % of control | 109 ± 3.6 % of control | 109 ± 3.8 % of control | 112 ± 4.8 % of control | 114 ± 2.5 % of control | 
CC(C)=CCC[C@](C)(O[C@@H]1O[C@H](CO[C@@H]2O[C@H](CO)[C@@H](O)[C@H](O)[C@H]2O)[C@@H](O)[C@H](O)[C@H]1O)[C@H]1CC[C@]2(C)[C@@H]1[C@H](O)C[C@@H]1[C@@]3(C)CC[C@H](O[C@@H]4O[C@H](CO)[C@@H](O)[C@H](O)[C@H]4O[C@@H]4O[C@H](CO)[C@@H](O)[C@H](O)[C@H]4O)C(C)(C)[C@@H]3CC[C@]12C [Rb1-54, ginsenoside Rb1] | 108 ± 3 % of control | 110 ± 3.4 % of control | 110 ± 2.6 % of control | 112 ± 1.2 % of control | 111 ± 2.6 % of control | 
NNCCc1ccccc1 [phenylzine] |  |  |  |  |  | inhibition at 100 µM (monoamine oxidase-B): 93%; inhibition at 100 µM (monoamine oxidase-A): 97.5%
CN1[C@@H]2C[C@@H](OC(=O)[C@H](CO)c3ccccc3)C[C@H]1[C@@H]1O[C@@H]12 [scopolamine] |  |  |  |  |  | mean latency (rats; day 14, third trial): 39.5 ± 8.2 s; memory effect of scopolamine treatment (rats; day 15): produces a memory deficit; mean latency (rats; day 16, third trial): 18.4 ± 2.9 s; memory effect of scopolamine treatment (rats; day 17): produces a memory deficit
Nerve Growth Factor [NGF] |  |  |  |  |  | neurite outgrowth (FIG. 29) (PC12 cells): increased neurite outgrowth in PC12 cells in a dose-dependent manner
